This experiment deals with T1, TIGIT/CD155 complex (Homo sapiens, UniProt Q495A1).
T1 construct: purchased 63ADK000CB07PEG
T1 sequence (Q495A1 22-141 limits assumed): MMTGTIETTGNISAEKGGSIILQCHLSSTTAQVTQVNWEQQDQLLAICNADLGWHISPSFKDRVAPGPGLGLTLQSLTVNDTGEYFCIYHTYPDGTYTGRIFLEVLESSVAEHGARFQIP
As to the kind of experiment: HTRF TIGIT/CD155 binding assay (blocking of TIGIT/CD155 complex). The conditions noted are these: for IC50: read-out: IC50, protein-protein blocking activity for TIGIT/CD155 complex; for TIGIT binding effects compared with compound 1: derivatives with side chains R1, R2, R3 modified. The method, then: Thus, the most enriched library molecule was found in the TIGIT screening and marked as potential ligand 1 (highlighted red in Figure 2A), whereas it was not observed in the bead-only control (Supplementary Figure S1B). The hit compound 1 was re-synthesized by “off-DNA” (the structure is shown in Figure 2B), and corresponding binding affinity was tested utilizing homogeneous time-resolved fluorescence (HTRF) technology.
For all compounds, the binding affinities were measured with TIGIT/CD155 Binding Assay (Immuno-Oncology, Part # 63ADK000CB07PEG) following the standard kit protocol.
A general note: TR-FRET usually uses a lanthanide donor and a delayed reading to cut background.

For `COc1ccc(C(NC(=O)C(Cc2ccsc2)NC(=O)C(C)c2ccc3cc(OC)ccc3c2)c2ccc(OCC(=O)O)cc2)c(OC)c1` (stereo not shown) [Compound 1], the IC50 came to 20.7 µM.

As for `COc1ccc(C(NC(=O)[C@H](Cc2ccsc2)NC(=O)c2ccc3cc(OC)ccc3c2)c2ccc(OCC(=O)O)cc2)c(OC)c1` (stereo partly shown) [Compound a6], the “TIGIT binding effects compared with compound 1” value is reported as “improved”. For the compound `COc1ccc(C(NC(=O)[C@H](Cc2ccsc2)NC(=O)/C=C/c2ccc3cc(OC)ccc3c2)c2ccc(OCC(=O)O)cc2)c(OC)c1` (stereo partly shown) [Compound a7], the “binding affinity rank among derivatives” value is recorded as “highest binding affinity”, the “TIGIT binding effects compared with compound 1” value is recorded as “improved” and the IC50 turned out to be 3.9 µM. Regarding `COc1ccc(C(NC(=O)[C@H](Cc2csc3ccccc23)NC(=O)[C@@H](C)c2ccc3cc(OC)ccc3c2)c2ccc(OCC(=O)O)cc2)c(OC)c1` (stereo partly shown) [Compound a16], the “TIGIT binding effects compared with compound 1” value was “improved”.

In the case of `COc1ccc(C(NC(=O)[C@H](Cc2ccccc2)NC(=O)[C@@H](C)c2ccc3cc(OC)ccc3c2)c2ccc(OCC(=O)O)cc2)c(OC)c1` (stereo partly shown) [Compound a17], the “TIGIT binding effects compared with compound 1” value is given as “improved”. Turning to `COc1ccc(C(NC(=O)[C@H](Cc2ccc(F)cc2)NC(=O)[C@@H](C)c2ccc3cc(OC)ccc3c2)c2ccc(OCC(=O)O)cc2)c(OC)c1` (stereo partly shown) [Compound a18], the “TIGIT binding effects compared with compound 1” value is listed as “improved”. As for `COc1ccc(C(NC(=O)[C@H](Cc2cccc(C#N)c2)NC(=O)[C@@H](C)c2ccc3cc(OC)ccc3c2)c2ccc(OCC(=O)O)cc2)c(OC)c1` (stereo partly shown) [Compound a19], the “TIGIT binding effects compared with compound 1” value is listed as “improved”. As to `COc1ccc2cc([C@H](C)C(=O)N[C@@H](Cc3csc4ccccc34)C(=O)NCc3ccc(OCC(=O)O)cc3)ccc2c1` [Compound a27], the “TIGIT binding effects compared with compound 1” value is on record as “improved”.

The values are drawn from PMC9360614, “Discovery of TIGIT inhibitors based on DEL and machine learning” (Frontiers in Chemistry, 2022).
